# Where a SMILES comes first, the peptide text is derived from it.
# Tested on: T. thermophilus cells
# Assay: Mass spectrometry proteome analysis of peptide-treated T. thermophilus cells
# Assay type: cell-based
# Parameters: change in number of ribosomal proteins in comparison with the control: dose or concentration left out as unconfirmed
# Settings: for Ribosomal Proteins (number detected, 3 or more identified peptides) / All Proteins / total protein detected (number) / detection of ribosomal S1 protein: 24 h; for Ribosomal Proteins (number detected, 3 or more identified peptides): control 51 (with S1), homogenization by freezing-thawing; for All Proteins / total protein detected (number): control 386; for detection of ribosomal S1 protein: control with S1; for Number of proteins, keyword Aminotransferase / Number of proteins, keyword Aromatic amino acid biosynthesis / Number of proteins, keyword DNA replication / Number of proteins, keyword Endonuclease / Number of proteins, keyword Histidine biosynthesis / Number of proteins, keyword Nuclease / Number of proteins, keyword One-carbon metabolism / Number of proteins, keyword Potassium / Number of proteins, keyword Purine salvage / Number of proteins, keyword S-adenosyl-L-methionine / Number of proteins, keyword Serine/threonine-protein kinase / Number of proteins, keyword tRNA processing: 0 μg/ml: 1; for Number of proteins, keyword Isoleucine biosynthesis / Number of proteins, keyword Ribosome biogenesis: 0 μg/ml: 2; for Number of proteins, keyword Aminopeptidase / Number of proteins, keyword Phosphoprotein / Number of proteins, keyword Purine biosynthesis / Number of proteins, keyword Redox-active center: 0 μg/ml: 3; for Number of proteins, keyword Glyoxylate bypass / Number of proteins, keyword Threonine biosynthesis: 0 μg/ml: 4; for Number of proteins, keyword Methionine biosynthesis: 0 μg/ml: 5; for Number of proteins, keyword Allosteric enzyme: 0 μg/ml: 6; for Number of proteins, keyword Serine protease: 0 μg/ml: 7; for Number of proteins, keyword NADP: 0 μg/ml: 8; for Number of proteins, keyword Protease: 0 μg/ml: 16; for Number of proteins, keyword Aminoacyl-tRNA synthetase: 0 μg/ml: 20; for Number of proteins, keyword Magnesium: 0 μg/ml: 23; for Number of proteins, keyword Hydrolase: 0 μg/ml: 26; for Unique proteins (number): control 100
# Protocol: T. thermophilus cells were incubated with or without peptides for 24 h. […] The cell extract was not allowed to heat above +10 °C. Cell debris and aggregates were collected by sedimentation using centrifugation in a 221.23 V20 rotor of a Z 36 HK centrifuge (Hermle Labortechnik GmbH, Wehingen, Germany) at 20,000× g 20 min at +4 °C. The supernatant was dried using a vacuum Concentrator 5301 (Eppendorf, Hamburg, Germany). The prepared lysate was dissolved in 100 μL of 9M urea to denature the total protein. Then, 20 μL of cell lysates was separated by electrophoretic in 12% SDS-PAGE. Protein fractions were divided on three equal parts, that every part was chop and treated with trypsin protease. Mass spectrometry analysis of every part was carried out independently. To purify the samples treated with trypsin, filtration was carried out through ZipTips (MilliporeSigma, Burlington, MA, USA). Protein hydrolyzates were concentrated on a pre-column Acclaim PepMap 100 (C18, 3 μm particle size, 100 Å pore size, 300 μm inner diameter × 5 mm length) and separated on an analytical column Acclaim PepMap RSLC (2 μm particle size, 100 Å pore size, 75 μm inner diameter × 150 mm length) (Thermo Scientific, Waltham, MA, USA) using nanoflow liquid chromatograph EASY nLC 1000 (Thermo Scientific, Waltham, MA, USA). A high-performance mass spectrometer an Orbitrap Elite (Thermo Scientific, Dreieich, Germany) was used as a detector. Panoramic spectra were recorded in the mass range m/z 300–2000 at resolution 60,000; ion fragmentation was performed in an HCD cell; the fragmentation spectra were recorded at resolution 15,000. Preliminary selection of identified peptides with a molecular mass (MM) >600 Da was carried out according to the evaluation criteria of the PEAKS Studio 7.5 program (Bioinformatics Solution Inc., Waterloo, ON N2L 6J2, Canada). The peptides with the threshold function value T = −10·logP > 15 were considered significant, where P is the probability that false identification will reach the same or better match score. The T value of >15 corresponds to the p criterion <0.03 [29]. The received fragmentation spectra were analyzed by web-server Identipy. Identification of proteins in the mass spectra of the total protein was carried out using the database of the reference T. thermophilus proteome (Uniprot, No. UP000217909). Proteome data every part was summarized. Subsequent analysis was conducted by using the statistics software R with packages UniProt.ws, tidyverse, ggplot2, splitstackshape, reshape, readr, RVenn, UpSetR (https://rdrr.io/bioc/UniProt.ws/; https://CRAN.R-project.org/package=readr; https://CRAN.R-project.org/package=splitstackshape; https://CRAN.R-project.org/package=readr; https://CRAN.R-project.org/package=RVen).
# Annotation of the certain proteins by keywords of the Uniprot database allows us to evaluate the changes in protein composition in 10 categories: biological process, cellular component, variety of coding sequences, molecular function, and others. The number of keywords corresponds to the number of annotated proteins.
compound,measurement,setting,value
CC[C@H](C)[C@H](NC(=O)[C@H](CCC(=O)O)NC(=O)[C@@H](NC(=O)[C@H](Cc1ccccc1)NC(=O)[C@@H](NC(=O)CNC(=O)[C@H](Cc1ccccc1)NC(=O)[C@H](CC(=O)O)NC(=O)[C@@H](NC(=O)[C@@H](NC(=O)CNC(=O)CN(C)C(=O)CNC(=O)CNC(=O)[C@H](CCCNC(=N)N)NC(=O)[C@H](CCCNC(=N)N)NC(=O)[C@H](CCCNC(=N)N)NC(=O)[C@H](CCC(N)=O)NC(=O)[C@H](CCCNC(=N)N)NC(=O)[C@H](CCCNC(=N)N)NC(=O)[C@H](CCCCN)NC(=O)[C@H](CCCCN)NC(=O)[C@@H](N)CCCNC(=N)N)C(C)C)[C@@H](C)O)C(C)C)C(C)C)C(=O)O [R23I] (HELM PEPTIDE1{R.K.K.R.R.Q.R.R.R.G.G.[Sar].G.V.T.D.F.G.V.F.V.E.I}$$$$V2.0; N-terminus and C-terminus assumed),change in number of ribosomal proteins in comparison with the control,R23I,more than two-fold decrease
same,less numbers of proteins detected relative to the control,R23I 20 μg/mL,40%
same,Common proteins for cells in control and treated cells (number),R23I 20 μg/ml,20
same,"Ribosomal Proteins (number detected, 3 or more identified peptides)",R23I 20 μg/ml,42
same,All Proteins / total protein detected (number),R23I 20 μg/ml,232
same,detection of ribosomal S1 protein,R23I 20 μg/ml,42 (without S1)
same,"Number of proteins, keyword Aminotransferase",R23I 20 μg/ml,0
same,"Number of proteins, keyword Aromatic amino acid biosynthesis",R23I 20 μg/ml,0
same,"Number of proteins, keyword DNA replication",R23I 20 μg/ml,0
same,"Number of proteins, keyword Endonuclease",R23I 20 μg/ml,0
same,"Number of proteins, keyword Histidine biosynthesis",R23I 20 μg/ml,0
same,"Number of proteins, keyword Nuclease",R23I 20 μg/ml,0
same,"Number of proteins, keyword One-carbon metabolism",R23I 20 μg/ml,0
same,"Number of proteins, keyword Potassium",R23I 20 μg/ml,0
same,"Number of proteins, keyword Purine salvage",R23I 20 μg/ml,0
same,"Number of proteins, keyword S-adenosyl-L-methionine",R23I 20 μg/ml,0
same,"Number of proteins, keyword Serine/threonine-protein kinase",R23I 20 μg/ml,0
same,"Number of proteins, keyword tRNA processing",R23I 20 μg/ml,0
same,"Number of proteins, keyword Isoleucine biosynthesis",R23I 20 μg/ml,0
same,"Number of proteins, keyword Ribosome biogenesis",R23I 20 μg/ml,0
same,"Number of proteins, keyword Aminopeptidase",R23I 20 μg/ml,0
same,"Number of proteins, keyword Phosphoprotein",R23I 20 μg/ml,1
same,"Number of proteins, keyword Purine biosynthesis",R23I 20 μg/ml,1
same,"Number of proteins, keyword Redox-active center",R23I 20 μg/ml,0
same,"Number of proteins, keyword Glyoxylate bypass",R23I 20 μg/ml,1
same,"Number of proteins, keyword Threonine biosynthesis",R23I 20 μg/ml,1
same,"Number of proteins, keyword Methionine biosynthesis",R23I 20 μg/ml,1
same,"Number of proteins, keyword Allosteric enzyme",R23I 20 μg/ml,1
same,"Number of proteins, keyword Serine protease",R23I 20 μg/ml,1
same,"Number of proteins, keyword NADP",R23I 20 μg/ml,2
same,"Number of proteins, keyword Protease",R23I 20 μg/ml,5
same,"Number of proteins, keyword Aminoacyl-tRNA synthetase",R23I 20 μg/ml,7
same,"Number of proteins, keyword Magnesium",R23I 20 μg/ml,9
same,"Number of proteins, keyword Hydrolase",R23I 20 μg/ml,9
same,Unique proteins (number),R23I 20 μg/ml,11
same,less numbers of proteins detected relative to the control,R23I 50 μg/mL,48%
same,ratio of proteins from treated cells to proteins from intact cells,"R23I 50 μg/mL, 201 to 386 proteins",0.52
same,Common proteins for cells in control and treated cells (number),R23I 50 μg/ml,9
same,"Ribosomal Proteins (number detected, 3 or more identified peptides)",R23I 50 μg/ml,39
same,All Proteins / total protein detected (number),R23I 50 μg/ml,201
same,detection of ribosomal S1 protein,R23I 50 μg/ml,39 (without S1)
same,"Number of proteins, keyword Aminotransferase",R23I 50 μg/ml,0
same,"Number of proteins, keyword Aromatic amino acid biosynthesis",R23I 50 μg/ml,0
same,"Number of proteins, keyword DNA replication",R23I 50 μg/ml,0
same,"Number of proteins, keyword Endonuclease",R23I 50 μg/ml,0
same,"Number of proteins, keyword Histidine biosynthesis",R23I 50 μg/ml,0
same,"Number of proteins, keyword Nuclease",R23I 50 μg/ml,0
same,"Number of proteins, keyword One-carbon metabolism",R23I 50 μg/ml,0
same,"Number of proteins, keyword Potassium",R23I 50 μg/ml,0
same,"Number of proteins, keyword Purine salvage",R23I 50 μg/ml,0
same,"Number of proteins, keyword S-adenosyl-L-methionine",R23I 50 μg/ml,0
same,"Number of proteins, keyword Serine/threonine-protein kinase",R23I 50 μg/ml,0
same,"Number of proteins, keyword tRNA processing",R23I 50 μg/ml,1
same,"Number of proteins, keyword Isoleucine biosynthesis",R23I 50 μg/ml,0
same,"Number of proteins, keyword Ribosome biogenesis",R23I 50 μg/ml,0
same,"Number of proteins, keyword Aminopeptidase",R23I 50 μg/ml,0
same,"Number of proteins, keyword Phosphoprotein",R23I 50 μg/ml,2
same,"Number of proteins, keyword Purine biosynthesis",R23I 50 μg/ml,1
same,"Number of proteins, keyword Redox-active center",R23I 50 μg/ml,0
same,"Number of proteins, keyword Glyoxylate bypass",R23I 50 μg/ml,1
same,"Number of proteins, keyword Threonine biosynthesis",R23I 50 μg/ml,1
same,"Number of proteins, keyword Methionine biosynthesis",R23I 50 μg/ml,1
same,"Number of proteins, keyword Allosteric enzyme",R23I 50 μg/ml,1
same,"Number of proteins, keyword Serine protease",R23I 50 μg/ml,2
same,"Number of proteins, keyword NADP",R23I 50 μg/ml,2
same,"Number of proteins, keyword Protease",R23I 50 μg/ml,5
same,"Number of proteins, keyword Aminoacyl-tRNA synthetase",R23I 50 μg/ml,7
same,"Number of proteins, keyword Magnesium",R23I 50 μg/ml,9
same,"Number of proteins, keyword Hydrolase",R23I 50 μg/ml,8
same,Unique proteins (number),R23I 50 μg/ml,2
same,Common proteins for cells in control and treated cells (number),R23I 100 μg/ml,69
same,"Ribosomal Proteins (number detected, 3 or more identified peptides)",R23I 100 μg/ml,23
same,All Proteins / total protein detected (number),R23I 100 μg/ml,395
same,detection of ribosomal S1 protein,R23I 100 μg/ml,23 (with S1)
same,"Number of proteins, keyword Aminotransferase",R23I 100 μg/ml,1
same,"Number of proteins, keyword Aromatic amino acid biosynthesis",R23I 100 μg/ml,1
same,"Number of proteins, keyword DNA replication",R23I 100 μg/ml,2
same,"Number of proteins, keyword Endonuclease",R23I 100 μg/ml,2
same,"Number of proteins, keyword Histidine biosynthesis",R23I 100 μg/ml,1
same,"Number of proteins, keyword Nuclease",R23I 100 μg/ml,2
same,"Number of proteins, keyword One-carbon metabolism",R23I 100 μg/ml,1
same,"Number of proteins, keyword Potassium",R23I 100 μg/ml,1
same,"Number of proteins, keyword Purine salvage",R23I 100 μg/ml,0
same,"Number of proteins, keyword S-adenosyl-L-methionine",R23I 100 μg/ml,1
same,"Number of proteins, keyword Serine/threonine-protein kinase",R23I 100 μg/ml,0
same,"Number of proteins, keyword tRNA processing",R23I 100 μg/ml,1
same,"Number of proteins, keyword Isoleucine biosynthesis",R23I 100 μg/ml,1
same,"Number of proteins, keyword Ribosome biogenesis",R23I 100 μg/ml,0
same,"Number of proteins, keyword Aminopeptidase",R23I 100 μg/ml,0
same,"Number of proteins, keyword Phosphoprotein",R23I 100 μg/ml,5
same,"Number of proteins, keyword Purine biosynthesis",R23I 100 μg/ml,3
same,"Number of proteins, keyword Redox-active center",R23I 100 μg/ml,3
same,"Number of proteins, keyword Glyoxylate bypass",R23I 100 μg/ml,4
same,"Number of proteins, keyword Threonine biosynthesis",R23I 100 μg/ml,2
same,"Number of proteins, keyword Methionine biosynthesis",R23I 100 μg/ml,3
same,"Number of proteins, keyword Allosteric enzyme",R23I 100 μg/ml,4
same,"Number of proteins, keyword Serine protease",R23I 100 μg/ml,3
same,"Number of proteins, keyword NADP",R23I 100 μg/ml,6
same,"Number of proteins, keyword Protease",R23I 100 μg/ml,11
same,"Number of proteins, keyword Aminoacyl-tRNA synthetase",R23I 100 μg/ml,19
same,"Number of proteins, keyword Magnesium",R23I 100 μg/ml,33
same,"Number of proteins, keyword Hydrolase",R23I 100 μg/ml,31
same,Unique proteins (number),R23I 100 μg/ml,176

# Source: publication PMC7504387, “Antimicrobial and Amyloidogenic Activity of Peptides Synthesized on the Basis of the Ribosomal S1 Protein from Thermus Thermophilus” (International Journal of Molecular Sciences, 2020)
